{"source": "patent US20220143148A1", "about": "“COMPOSITIONS AND METHODS FOR MODULATING CGRP SIGNALING TO REGULATE INTESTINAL INNATE LYMPHOID CELLS” (The Broad Institute, Inc., priority 2019, published 2022)", "key": {"[1]": {"test_system": "KLRG1+ ILC2s", "assay": "In vitro proliferation assay (CellTrace Violet, flow cytometry)", "type": "cell-based, mouse", "conditions": "IL-25 plus α-CGRP, 60 hours; P=0.01, t-test", "experimental": "(§1) Flow cytometry and cell sorting. Cells were washed and suspended in MACS buffer (pH 7.4; PBS plus 2% FCS and 2 mM EDTA). Nonspecific antibody binding was blocked with CD16/CD32 (2.4G2) antibody for 15 min on ice. Cells were then stained with antibody cocktails for 30 min at 4° C. Lineage-positive cells were excluded for analyzing ILCs by staining for CD3ε (145-2C11), CD5 (53-7.3), CD19 (6D5), CD11b (M1/70), CD8 (53-6.7), CD11c (N418), Gr-1 (RB6-8C5), TCRγδ (eBioGL3 (GL-3, GL3)) and TCRβ (H57-597). To analyze mast cells, lineage-positive cells were excluded by staining for CD3ε, CD5, CD19, CD11c and SiglecF (E50-2440). For surface staining, antibodies for KLRG1 (2F1), CD45 (30-F11), CD127 (A7R34), CCR6 (29-2L17), NKp46 (29A1.4), CD90.2 (53-2.1), FcεRI (Mar-1), IgD (11-26c.2a) and ST2 (DJ8) were used. For intracellular staining, cells were fixed and permeabilized using the Foxp3 transcription factor staining buffer set, followed by staining with anti-GATA-3 (TWAJ) or anti-RORγt (B2D) antibodies. Dead cells were excluded with 7-AAD or Fixable Viability Dye eFluor 780. Flow cytometry was performed on Cytoflex (Beckman Coulter) and analyzed with FlowJo software. Sorting was performed with the SH800S Cell Sorter (Sony Biotechnology).\nILC2 culture. […]"}, "[2]": {"test_system": "KLRG1+ ILC2s", "assay": "IL-25-induced in vivo ILC2 activation model", "parameters": "species or system mouse", "description": "Intraperitoneal administration of α-CGRP impaired IL-25-induced expansion of KLRG1^+ ILC2s (FIGS. 5B and 12A), consistent with the in vitro results. Recent work has shown that intestinal KLRG1^+ ILC2s can migrate to mesenteric lymph nodes (mLNs) and other tissues during inflammation via sphingosine 1-phosphate (S1P)-mediated chemotaxis (Huang et al., 2018). To determine whether α-CGRP primarily impacts intestinal or mLN ILC2s, Applicants relied on the fact that intestinal GATA3^+ ILC2s are generally phenotypically KLRG1^+ST2^− (data not shown), whereas mLN ILC2s are mainly ST2^+ at steady state (FIG. 5C). IL-25 administration increased the frequency of both KLRG1^+ST2^− inflammatory ILC2s and ST2^+ ILC2s in mLNs (FIGS. 5C-E and 12B). […] Thus, α-CGRP preferentially regulates the response of intestinal KLRG1^+ST2^− ILC2s. […] Taken together, α-CGRP antagonized expansion of intestinal KLRG1^+ ILC2s in two different type 2 inflammatory models.\nTo activate ILC2s in vivo, 200 ng of IL-25 was intraperitoneally injected into 7-10 weeks old mice daily for two days. 1 μg α-CGRP was injected together as noted.\nas §1\nImmunofluorescence staining and imaging. The small intestines were fixed in 2% PFA, embedded in O.C.T. Compound and sliced into 10 μm by frozen section. The slides were blocked with 0.1% Triton X-100, 2% FCS and donkey serum. […] The images were analyzed with ImageJ."}}}
{"substance": "α-CGRP: neuropeptide alpha-calcitonin gene-related peptide, encoded by exon 5 of Calca; administered as peptide", "values": [{"measurement": "IL-25-induced cell division", "setting": "[1]", "result": "significantly suppressed"}, {"measurement": "frequency of KLRG1+ST2− ILC2s in mLNs", "setting": "[2]; IL-25 co-administered with α-CGRP", "result": "reduced"}, {"measurement": "IL-25-induced expansion of KLRG1+ ILC2s", "setting": "[2]; intraperitoneal α-CGRP with IL-25, small intestine, IF", "result": "impaired"}]}
